Experimental data reported in ChEMBL document CHEMBL1140531, “New functional assay of P-glycoprotein activity using Hoechst 33342” (Bioorg Med Chem, 2007).

What was measured:
[1] = biological target: T1, ATP-dependent translocase ABCB1 (Homo sapiens, UniProt P08183); test: Inhibition of P-glycoprotein expressed in MDCK-MDR1 cells by calcein AM assay; format: cell-based
[2] = biological target: T1, ATP-dependent translocase ABCB1; test: Inhibition of P-glycoprotein by Hoechst assay
[3] = biological target: T1, ATP-dependent translocase ABCB1; test: Inhibition of P-glycoprotein expressed in A2780/ADR cells by calcein AM assay; format: cell-based
[4] = test system: A2780; test: Cytotoxicity against human A2780 cells after 72 hrs by MTT assay; format: functional, cell-based; settings: A2780, 72 h
[5] = Cytotoxicity against human A2780/ADR cells after 72 hrs by MTT assay; format: functional, cell-based

T1 sequence (P08183 whole entry): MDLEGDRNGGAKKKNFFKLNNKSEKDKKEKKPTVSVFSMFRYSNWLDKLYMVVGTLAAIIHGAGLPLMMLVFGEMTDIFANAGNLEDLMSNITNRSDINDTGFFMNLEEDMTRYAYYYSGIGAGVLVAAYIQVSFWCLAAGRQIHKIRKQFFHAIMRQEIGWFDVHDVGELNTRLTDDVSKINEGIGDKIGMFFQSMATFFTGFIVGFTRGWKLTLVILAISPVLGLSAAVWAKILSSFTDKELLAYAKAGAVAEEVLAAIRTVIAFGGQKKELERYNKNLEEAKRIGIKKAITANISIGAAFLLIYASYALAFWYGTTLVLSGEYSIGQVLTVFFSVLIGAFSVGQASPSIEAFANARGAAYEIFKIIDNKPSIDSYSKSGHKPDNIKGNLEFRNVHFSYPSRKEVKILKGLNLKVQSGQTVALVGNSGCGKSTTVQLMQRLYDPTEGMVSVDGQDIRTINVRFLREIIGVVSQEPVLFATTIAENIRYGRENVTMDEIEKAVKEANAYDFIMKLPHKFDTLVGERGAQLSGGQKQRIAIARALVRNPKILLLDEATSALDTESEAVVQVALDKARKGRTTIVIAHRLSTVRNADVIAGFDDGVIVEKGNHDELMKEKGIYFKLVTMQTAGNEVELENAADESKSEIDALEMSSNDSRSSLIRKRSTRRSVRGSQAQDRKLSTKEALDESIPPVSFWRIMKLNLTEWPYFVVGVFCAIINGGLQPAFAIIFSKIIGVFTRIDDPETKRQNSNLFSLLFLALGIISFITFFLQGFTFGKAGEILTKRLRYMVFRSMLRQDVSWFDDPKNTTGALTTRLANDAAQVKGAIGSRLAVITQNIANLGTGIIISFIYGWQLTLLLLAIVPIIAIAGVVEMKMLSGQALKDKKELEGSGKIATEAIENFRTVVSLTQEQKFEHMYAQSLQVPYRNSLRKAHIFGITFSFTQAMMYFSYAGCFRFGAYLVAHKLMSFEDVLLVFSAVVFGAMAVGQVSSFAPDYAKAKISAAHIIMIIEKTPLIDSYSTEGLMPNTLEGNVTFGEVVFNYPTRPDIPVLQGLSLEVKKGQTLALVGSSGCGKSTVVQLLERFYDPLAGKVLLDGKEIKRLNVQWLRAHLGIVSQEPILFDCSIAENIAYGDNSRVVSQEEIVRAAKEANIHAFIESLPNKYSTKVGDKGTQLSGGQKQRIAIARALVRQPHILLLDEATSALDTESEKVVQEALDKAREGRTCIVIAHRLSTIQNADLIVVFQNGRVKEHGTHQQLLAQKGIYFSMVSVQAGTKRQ

| SMILES | Hill coefficient [1] | IC50 [2] [µM] | IC50 [3] [µM] | IC50 [4] [µM] | IC50 [5] [µM] |
| --- | --- | --- | --- | --- | --- |
| COc1ccc(C(=O)Nc2ccccc2C(=O)Nc2ccc(CCN3CCc4cc(OC)c(OC)cc4C3)cc2)cc1OC | 2.89 | 0.331 | 0.339 |  |  |
| O=C(Nc1ccc(CCN2CCc3ccccc3C2)cc1)Nc1ccccc1NC(=O)c1cnc2ccccc2c1 | 2.6 |  | 0.813 |  |  |
| CCOc1ccc(-c2nc3cc(-c4nc5cc(N6CCN(C)CC6)ccc5[nH]4)ccc3[nH]2)cc1 |  |  |  | 1.91 | 38 |
| COc1cc2c(cc1OC)CN(CCc1ccc(NC(=O)c3ccccc3NC(=O)c3ccccc3)cc1)CC2 | 2.01 | 0.513 | 0.851 |  |  |
| O=C(Nc1ccccc1C(=O)Nc1ccc(CCN2CCc3ccccc3C2)cc1)c1cnc2ccccc2c1 | 2.42 | 0.355 | 0.49 |  |  |
| COc1cc2c(c(OC)c1OC)-c1ccc(OC)c(=O)cc1[C@@H](NC(C)=O)CC2 [COLCHICINE] |  |  |  | 0.0229 | 0.372 |
| COc1cccc2c1C(=O)c1c(O)c3c(c(O)c1C2=O)C[C@@](O)(C(C)=O)C[C@@H]3O[C@H]1C[C@H](N)[C@H](O)[C@H](C)O1 [DAUNORUBICIN] |  |  |  | 0.117 | 18.6 |
| COc1ccc([C@@H]2Sc3ccccc3N(CCN(C)C)C(=O)[C@@H]2OC(C)=O)cc1 [DILTIAZEM] | 1.15 |  |  |  |  |
| CC(=O)O[C@@]12CO[C@@H]1C[C@H](O)[C@@]1(C)C(=O)[C@H](O)C3=C(C)[C@@H](OC(=O)[C@H](O)[C@@H](NC(=O)OC(C)(C)C)c4ccccc4)C[C@@](O)([C@@H](OC(=O)c4ccccc4)[C@H]21)C3(C)C [DOCETAXEL] |  |  |  | 0.0049 | 0.0871 |
| COc1cccc2c1C(=O)c1c(O)c3c(c(O)c1C2=O)C[C@@](O)(C(=O)CO)C[C@@H]3O[C@H]1C[C@H](N)[C@H](O)[C@H](C)O1 [DOXORUBICIN] |  |  |  | 0.0933 | 13.5 |
| Cc1ccc(NC(=O)c2ccc(CN3CCN(C)CC3)cc2)cc1Nc1nccc(-c2cccnc2)n1 [IMATINIB] | 1.18 |  |  |  |  |
| COC(=O)C1=C(C)NC(C)=C(C(=O)OCCN(C)Cc2ccccc2)C1c1cccc([N+](=O)[O-])c1 (stereo not drawn) [NICARDIPINE] | 2.44 |  |  |  |  |
| CC(=O)[C@H]1CC[C@H]2[C@@H]3CCC4=CC(=O)CC[C@]4(C)[C@H]3CC[C@]12C [PROGESTERONE] | 1.31 |  |  |  |  |
| COC(=O)[C@H]1[C@H]2C[C@@H]3c4[nH]c5cc(OC)ccc5c4CCN3C[C@H]2C[C@@H](OC(=O)c2cc(OC)c(OC)c(OC)c2)[C@@H]1OC [RESERPINE] | 1.88 | 3.02 | 3.24 |  |  |
| COC(=O)c1ccccc1-c1c2ccc(=N)cc-2oc2cc(N)ccc12 [RHODAMINE123] |  |  |  | 1.91 | 123 |
| CC[C@]1(O)C[C@@H]2CN(CCc3c([nH]c4ccccc34)[C@@](C(=O)OC)(c3cc4c(cc3OC)N(C)[C@H]3[C@@](O)(C(=O)OC)[C@H](OC(C)=O)[C@]5(CC)C=CCN6CC[C@]43[C@@H]65)C2)C1 [VINBLASTINE] | 2.06 |  |  | 0.0617 | 2.82 |
